According to paper PMC9081329, “Pharmacokinetics, Mass Balance, Excretion, and Tissue Distribution of Plasmalogen Precursor PPI-1011” (Frontiers in Cell and Developmental Biology, 2022):

Assay: Single dose tissue distribution study (QWBA, LSC of blood and plasma)
Format: in vivo, Sprague-Dawley rats
Procedure: Six male rats were administered a single oral dose of [^14C]PPI-1011 at 100 mg/kg (200 μCi/kg) and one rat was sacrificed at each of the following time points after the administration of the dose: 8, 12, 18, 24, 48, or 168 h. Terminal blood was collected by cardiac puncture directly into tubes with K2EDTA, an aliquot was stored at 4°C until LSC was performed for radioactivity, while the remaining blood was processed to plasma and stored at −20°C until LSC. Following blood collection, the carcasses were frozen in a cold bath with hexanes and dry ice for at least 8 min and then dried and stored at −70°C for at least 5 h. The carcasses were transferred to a −20°C freezer for at least 12 h before embedding.
QWBA was used to determine radioactivity concentrations in the caecum (contents and mucosa), large intestine (contents and mucosa), small intestine (contents and mucosa), stomach (contents and mucosa), brain, choroid plexus, spinal cord, bone, skin, adrenal gland, pineal body, pituitary gland, thyroid gland, liver, kidney (cortex, medulla and whole kidney), urinary bladder (contents and wall), brown fat, white fat, eye (lens, uveal tract and whole eye), epididymis, prostate gland, testis, ovary, uterus, lung, exorbital lachrymal gland, Harderian gland, pancreas, salivary gland, skeletal muscle, myocardium, cardiac blood, bone marrow, lymph node, spleen, and thymus. As well, LSC was used to determine the total radioactivity in the whole blood and plasma.
The whole-body cryosectioning technique described by ([Ullberg, 1977]) was the basis for embedding and cryosectioning the rats assigned to this study. Each frozen carcass was shaved, and then the limbs and tail were removed prior to embedding. Chilled (4°C) 3% CMC (low viscosity) was utilized to provide a firm support of reinforced ice around each rat and for a secure attachment to the microtome stage. Upon thorough freezing of the embedding medium surrounding each rat, the frozen CMC block was removed from the freezing bath and four 3/8 inch holes were drilled into the block. One cryosection quality control standard (CQCS) was prepared with a known amount of radioactivity and at least 1 ml aliquots were added to each of the four drilled holes. CQCS data were utilized to evaluate the overall performance of the QWBA assay.
Each frozen rat was sagittally trimmed (50–100 μm) at −20°C until exposure of a few target tissues employing a Leica Cryomacrocut heavy-duty microtome (Leica Microsystems Inc.,). Disposable stainless steel Feather type H45L knives (Feather Safety Razor Co., Ltd.) were utilized for trimming and sectioning each frozen rat. Several thinner sections (50 μm) were discarded prior to obtaining multiple 50 μm sections at various cryosectioning levels for QWBA analysis. Upon the collection of at least 60 target tissues in multiple cryosectioning levels, the cryosections were kept in the Cryomacrocut cryochamber for a minimum of 18 h for dehydration depending upon the number of cryosections within the cryochamber. After dehydration was complete, the cryosections were transferred to ambient temperature for processing. Mounted whole-body cryosections and a set of 15 standards were sandwiched between a standard phosphor screen and an exposure cassette. All cryosections were exposed to the phosphor screen for 4-days in a cabinet protected with lead prior to scanning using a Typhoon PhosphorImager (Cytiva). MCID™ Analysis software (InterFocus Ltd.) was utilized to generate a calibration curve of the STD nominal concentrations (nCi/g) versus PhosphorImager response (counts/μm^2 minus background) by weighted (1/x) linear regression analysis ([Potchoiba et al., 1995]; [Potchoiba et al., 1998]). The linear regression curve was then utilized to determine the concentration (nCi/g) of total radioactivity in whole-body tissues and blood. Radioactivity concentrations were expressed as μg Eq/g based on the specific activity of the compound in the final dose formulations. […]

[1] = 24 h post single oral 100 mg/kg
[2] = 48 h post single oral 100 mg/kg

CC/C=C\C/C=C\C/C=C\C/C=C\C/C=C\C/C=C\CCC(=O)O[C@H](CO[14CH2]CCCCCCCCCCCCCCC)COC(=O)CCCCC1CCSS1 (stereo partly shown) [[^14C]PPI-1011]
Radioactivity concentration, Choroid Plexus [1]: 9.85 μg equivalents/g | Radioactivity concentration, Colliculus [1]: 2.06 μg equivalents/g | Radioactivity concentration, Diaphragm [1]: 37.4 μg equivalents/g | Radioactivity concentration, Epididymis [1]: 40.4 μg equivalents/g | Radioactivity concentration, Esophagus [1]: 9.46 μg equivalents/g | Radioactivity concentration, Exorbital Lacrimal Gland [1]: 9.66 μg equivalents/g | Radioactivity concentration, Gastric Mucosa [1]: 48.7 μg equivalents/g | Radioactivity concentration, Harderian Gland [1]: 10.5 μg equivalents/g | Radioactivity concentration, Intra-Orbital Lacrimal Gland [1]: 7.56 μg equivalents/g | Radioactivity concentration, Kidney [1]: 24.7 μg equivalents/g | Radioactivity concentration, Large Intestines [1]: 180 μg equivalents/g | Radioactivity concentration, Liver [1]: 73.4 μg equivalents/g | Radioactivity concentration, Lung [1]: 30.2 μg equivalents/g | Radioactivity concentration, Lymph Node [1]: 17.4 μg equivalents/g | Radioactivity concentration, Medulla Oblongata [1]: 1.98 μg equivalents/g | Radioactivity concentration, Muscle [1]: 7.57 μg equivalents/g | Radioactivity concentration, Myocardium [1]: 31.0 μg equivalents/g | Radioactivity concentration, Nasal Turbinates [1]: 4.81 μg equivalents/g | Radioactivity concentration, Ocular - Uveal Tract [1]: 4.27 μg equivalents/g | Radioactivity concentration, Ocular - Whole Eye [1]: 1.14 μg equivalents/g | Radioactivity concentration, Olfactory Bulb [1]: 2.07 μg equivalents/g | Radioactivity concentration, Pancreas [1]: 24.8 μg equivalents/g | Radioactivity concentration, Parotid Gland [1]: 20.5 μg equivalents/g | Radioactivity concentration, Pineal Gland [1]: 10.8 μg equivalents/g | Radioactivity concentration, Pituitary Gland [1]: 16.7 μg equivalents/g | Radioactivity concentration, Preputial Gland [1]: 112 μg equivalents/g | Radioactivity concentration, Prostate [1]: 56.7 μg equivalents/g | Radioactivity concentration, Renal Cortex [1]: 26.8 μg equivalents/g | Radioactivity concentration, Renal Medulla [1]: 25.8 μg equivalents/g | Radioactivity concentration, Salivary Gland [1]: 21.3 μg equivalents/g | Radioactivity concentration, Seminal Vesicles [1]: 5.38 μg equivalents/g | Radioactivity concentration, Skin - Non-Pigmented [1]: 9.26 μg equivalents/g | Radioactivity concentration, Small Intestines [1]: 247 μg equivalents/g | Radioactivity concentration, Spinal Cord [1]: 1.75 μg equivalents/g | Radioactivity concentration, Spleen [1]: 46.3 μg equivalents/g | Radioactivity concentration, Stomach [1]: 10.8 μg equivalents/g | Radioactivity concentration, Testis [1]: 4.31 μg equivalents/g | Radioactivity concentration, Thalamus [1]: 1.71 μg equivalents/g | Radioactivity concentration, Thymus [1]: 9.79 μg equivalents/g | Radioactivity concentration, Thyroid [1]: 27.7 μg equivalents/g | Radioactivity concentration, Whole Brain [1]: 1.95 μg equivalents/g | Radioactivity concentration, Adipose - Brown [2]: 132 μg equivalents/g | Radioactivity concentration, Adipose - Brown (Vessel Wall) [2]: 98.6 μg equivalents/g | Radioactivity concentration, Adipose - Subcutaneous [2]: 82.1 μg equivalents/g | Radioactivity concentration, Adipose - Visceral [2]: 111 μg equivalents/g | Radioactivity concentration, Adrenal Gland [2]: 201 μg equivalents/g | Radioactivity concentration, Bladder Wall [2]: 10.7 μg equivalents/g | Radioactivity concentration, Blood - QWBA [2]: 4.19 μg equivalents/g | Radioactivity concentration, Bone Marrow [2]: 15.7 μg equivalents/g | Radioactivity concentration, Bone Surface [2]: 0.508 μg equivalents/g | Radioactivity concentration, Cecum [2]: 34.3 μg equivalents/g | Radioactivity concentration, Cerebellum [2]: 2.60 μg equivalents/g | Radioactivity concentration, Cerebrum [2]: 2.23 μg equivalents/g | Radioactivity concentration, Choroid Plexus [2]: 14.4 μg equivalents/g | Radioactivity concentration, Colliculus [2]: 3.30 μg equivalents/g | Radioactivity concentration, Diaphragm [2]: 23.0 μg equivalents/g | Radioactivity concentration, Epididymis [2]: 6.81 μg equivalents/g | Radioactivity concentration, Esophagus [2]: 10.8 μg equivalents/g | Radioactivity concentration, Exorbital Lacrimal Gland [2]: 6.13 μg equivalents/g | Radioactivity concentration, Gastric Mucosa [2]: 37.5 μg equivalents/g | Radioactivity concentration, Harderian Gland [2]: 11.1 μg equivalents/g | Radioactivity concentration, Intra-Orbital Lacrimal Gland [2]: 6.64 μg equivalents/g | Radioactivity concentration, Kidney [2]: 24.6 μg equivalents/g | Radioactivity concentration, Large Intestines [2]: 19.1 μg equivalents/g | Radioactivity concentration, Liver [2]: 40.0 μg equivalents/g | Radioactivity concentration, Lung [2]: 22.9 μg equivalents/g | Radioactivity concentration, Lymph Node [2]: 20.0 μg equivalents/g | Radioactivity concentration, Medulla Oblongata [2]: 2.45 μg equivalents/g | Radioactivity concentration, Muscle [2]: 8.42 μg equivalents/g | Radioactivity concentration, Myocardium [2]: 26.6 μg equivalents/g | Radioactivity concentration, Nasal Turbinates [2]: 5.03 μg equivalents/g | Radioactivity concentration, Ocular - Uveal Tract [2]: 4.78 μg equivalents/g | Radioactivity concentration, Ocular - Whole Eye [2]: 1.30 μg equivalents/g | Radioactivity concentration, Olfactory Bulb [2]: 2.01 μg equivalents/g | Radioactivity concentration, Pancreas [2]: 28.0 μg equivalents/g | Radioactivity concentration, Parotid Gland [2]: 20.9 μg equivalents/g | Radioactivity concentration, Pineal Gland [2]: 16.4 μg equivalents/g | Radioactivity concentration, Pituitary Gland [2]: 19.2 μg equivalents/g | Radioactivity concentration, Preputial Gland [2]: 76.5 μg equivalents/g | Radioactivity concentration, Prostate [2]: 7.15 μg equivalents/g | Radioactivity concentration, Renal Cortex [2]: 24.3 μg equivalents/g | Radioactivity concentration, Renal Medulla [2]: 22.7 μg equivalents/g | Radioactivity concentration, Salivary Gland [2]: 22.9 μg equivalents/g | Radioactivity concentration, Seminal Vesicles [2]: 9.12 μg equivalents/g | Radioactivity concentration, Skin - Non-Pigmented [2]: 13.4 μg equivalents/g
